± gives the standard deviation.
Key:
[1] = chemical recovery by SPE of plasma after PDMS sampling; higher = better extraction; details: pooled human plasma, extraction method: HLB SPE of plasma after PES
[2] = chemical recovery from spiked human plasma; higher = better extraction; details: pooled human plasma
[3] = extraction method: PES+SPE (3 d PDMS equilibration then HLB SPE)
[4] = extraction method: SPE only (HLB 96-well)
[5] = extraction method: SPE only (HLB 96-well), PES comparison experiment
[6] = extraction method: solvent precipitation (ACN + hexane)
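Throughout, for chemical recovery by SPE of plasma after PDMS sampling: over 400 spiked chemicals quantified by LC-HRMS or GC-HRMS via internal standard calibration, recovery relative to spike mix added to unspiked plasma extract to correct matrix effects.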

| Compound | chemical recovery by SPE of plasma ([1]; equilibration time (d): 1) [%] | chemical recovery by SPE of plasma ([1]; equilibration time (d): 3) [%] | chemical recovery by SPE of plasma ([1]; equilibration time (d): 6) [%] | chemical recovery [2, 3] [%] | chemical recovery [2, 4] [%] | chemical recovery [2, 5] [%] | chemical recovery [2, 6] [%] |
| --- | --- | --- | --- | --- | --- | --- | --- |
| Oc1ccc(Cl)cc1Cl [2,4-Dichlorophenol] | 49.3 ± 11 | 56.9 ± 4.3 | 50.9 ± 3.1 | 43.4 ± 3.3 | 40.3 ± 3.3 | 54.2 ± 5.9 |  |
| O=[N+]([O-])c1ccc(O)c([N+](=O)[O-])c1 [2,4-Dinitrophenol] | 49.4 ± 8.9 | 52 ± 3 | 50.9 ± 4.5 | 52.7 ± 7.5 | 48.7 ± 6.6 | 59.8 ± 4.8 | 79.6 ± 6.8 |
| O=S(=O)(O)c1nc2ccccc2s1 [2-Benzothiazolesulfonic acid] | 31.8 ± 4.8 | 42.3 ± 0.92 | 39.9 ± 5.4 |  | 61.2 ± 20 | 46 ± 4.3 | 88.4 ± 4.2 |
| Oc1ccccc1-c1ccccc1 [2-Phenylphenol] | 4.5 ± 4 | 3.47 ± 0.42 | 3.11 ± 1.4 |  | 19.9 ± 4.2 |  |  |
| Nc1ccc(Sc2ccc(N)cc2)cc1 [4,4'-Thiodianiline] | 11.7 ± 2.8 | 10.6 ± 2.5 | 7.77 ± 1.4 | 1.15 ± 0.088 | 8.97 ± 1.9 | 16.5 ± 2 | 42.1 ± 9.6 |
| Oc1ccc(Cl)cc1 [4-Chlorophenol] | 60 ± 12 | 66.4 ± 6.9 | 59.4 ± 4.3 | 33.9 ± 11 | 35.2 ± 7.2 | 60.1 ± 5.1 | 98 ± 9.7 |
| O=c1cc(O)c2ccccc2o1 [4-Hydroxycoumarin] | 69.3 ± 16 | 64.3 ± 4.7 | 78 ± 15 |  |  | 13.2 ± 3.1 |  |
| O=[N+]([O-])c1ccc(O)cc1 [4-Nitrophenol] | 57.4 ± 7.2 | 59.3 ± 2.9 | 55.1 ± 4.6 | 48.9 ± 3 | 41.5 ± 6.3 | 64.5 ± 4.6 | 65.1 ± 6.7 |
| C=Cc1c2ccccc2cc2ccccc12 [9-Vinylanthracene] | 3.04 ± 5.3 | 3.05 ± 5.3 | 2.42 ± 4.2 | 42.05 ± 0.27 | 2.31 ± 0.48 |  |  |
| C1=Cc2cccc3cccc1c23 [Acenaphthylene] |  | 10.5 ± 4.6 | 2.28 ± 8 |  | 3.51 ± 0.93 |  |  |
| CC1=CC(=O)NS(=O)(=O)O1 [Acesulfame] |  | 1.86 ± 0.99 | 8.53 ± 4.2 | 11.2 ± 1.4 | 19.4 ± 5.8 |  | 93.4 ± 4.7 |
| COc1cc(OC)nc(NC(=O)NS(=O)(=O)N(C)S(C)(=O)=O)n1 [Amidosulfuron] | 46.5 ± 7.7 | 49.1 ± 5.5 | 45.9 ± 6.6 | 46.6 ± 16 | 41 ± 4.5 | 49.1 ± 5.6 | 70.2 ± 3.1 |
| CC(C)N1C(=O)c2ccccc2NS1(=O)=O [Bentazone] | 54.8 ± 8.1 | 58 ± 4.1 | 54.7 ± 3.1 | 44.5 ± 3.6 | 41.7 ± 3.2 | 63.8 ± 5.6 | 75.2 ± 2.8 |
| Nc1ccc(-c2ccc(N)cc2)cc1 [Benzidine] | 6.25 ± 0.9 | 6.11 ± 1.1 | 3.81 ± 0.98 | 0.64 ± 0.073 | 13.2 ± 2 | 5.89 ± 3 | 38.3 ± 7.4 |
| c1ccc2c(c1)cc1ccc3cccc4ccc2c1c34 [Benzo(a)pyrene] | 1.26 ± 1.1 |  |  |  | 4.36 ± 4 |  | 99.1 ± 12 |
| c1ccc2c(c1)c1cccc3ccc4cccc2c4c31 [Benzo(e)pyrene] | 1.45 ± 1.3 | 1.37 ± 1.2 | 1.06 ± 1.8 |  | 2.35 ± 0.68 |  | 57.7 ± 6.1 |
| COc1cc(O)c(C(=O)c2ccccc2)cc1S(=O)(=O)O [Benzophenone-4] | 41 ± 11 | 48.7 ± 3.4 | 43.3 ± 4.4 | 45.5 ± 3.2 | 43.3 ± 3.8 | 44.4 ± 4.8 | 72.2 ± 2.3 |
| CCCCCCCCCCCC[N+](C)(C)Cc1ccccc1 [Benzyldimethyldodecylammonium] | 39.1 ± 6.7 | 43.2 ± 10 |  |  |  | 46.5 ± 13 |  |
| O=C(O)c1cc(Oc2ccc(Cl)cc2Cl)ccc1[N+](=O)[O-] [Bifenox free acid] |  | 40.7 ± 16 |  | 38.2 ± 3.9 | 30.6 ± 3.6 | 36.6 ± 6.7 | 65.8 ± 3.1 |
| Oc1c(Br)cc(Cl)cc1Cc1cc(Cl)cc(Br)c1O [Bromochlorophen] | 34.8 ± 10 |  |  | 34.8 ± 6.3 | 28.9 ± 6 | 32.3 ± 8 | 34.9 ± 2 |

More lines, now with the values ahead:

| chemical recovery by SPE of plasma ([1]; equilibration time (d): 1) [%] | chemical recovery by SPE of plasma ([1]; equilibration time (d): 3) [%] | chemical recovery by SPE of plasma ([1]; equilibration time (d): 6) [%] | chemical recovery [2, 3] [%] | chemical recovery [2, 4] [%] | chemical recovery [2, 5] [%] | chemical recovery [2, 6] [%] | Compound |
| --- | --- | --- | --- | --- | --- | --- | --- |
|  | 47.9 ± 0.58 | 45 ± 6.4 |  | 61.3 ± 20 | 44.7 ± 5.6 | 74.1 ± 3.9 | O=S(=O)(O)c1cccc2ccc(O)cc12 [2-Naphthol-8-sulfonic acid] |
| 13.5 ± 3.3 | 7.29 ± 0.7 | 3.71 ± 1.9 | 11.4 ± 2.5 | 46.8 ± 8.9 | 42.6 ± 12 | 62.1 ± 1.3 | CCC(=C(c1ccc(O)cc1)c1ccc(OCCN(C)C)cc1)c1ccccc1 [4-Hydroxytamoxifen] |
| 59.2 ± 5.8 | 57.1 ± 4.7 | 51.1 ± 6.5 |  |  | 53.6 ± 7.5 |  | C[C@H]1C[C@@H]2[C@H]([C@@H](O)C[C@@]3(C)[C@H]2CC[C@]3(O)C(=O)CO)[C@@]2(C)C=CC(=O)C=C12 [6alpha Methylprednisolone] |
|  | 69.9 ± 7.5 |  | 45.5 ± 5.2 | 44.9 ± 4.7 | 48.4 ± 4.8 | 71 ± 2.8 | NC(=O)N1c2ccccc2C(O)C(O)c2ccccc21 (stereo not drawn) [10,11-Dihydro-10,11-dihydroxycarbamazepine] |
| 51.7 ± 7.1 | 51.4 ± 3.5 | 49.3 ± 6.2 | 42.7 ± 3.9 | 37.2 ± 3.4 | 51.5 ± 4.3 | 72 ± 3.1 | CC(=O)Nc1ccc(S(=O)(=O)Nc2cc(C)on2)cc1 [Acetyl-sulfamethoxazole] |
| 5.86 ± 0.39 | 3.53 ± 0.36 | 2.28 ± 0.42 | 3.61 ± 0.98 | 35.7 ± 3.7 | 37.8 ± 5.9 | 59.7 ± 5.1 | CCCSc1ccc2[nH]c(NC(=O)OC)nc2c1 [Albendazole] |
| 25.7 ± 5.3 | 26.1 ± 6.5 | 25.2 ± 4.2 |  |  | 36 ± 9.4 | 74.8 ± 5 | CCCCCCCCCCCCCC(=O)NCCC[N+](C)(C)CCCS(=O)(=O)[O-] [Amidosulfobetaine-14] |
|  | 8.41 ± 7.3 | 4.31 ± 7.5 |  | 1.06 ± 0.29 |  | 20.2 ± 2.8 | c1ccc2cc3c(ccc4ccccc43)cc2c1 [Benz(a)anthracene] |
| 44.1 ± 5.1 | 48.6 ± 5.5 | 44.2 ± 1.7 |  |  | 47.5 ± 7.2 |  | CCCCCOC(=O)Nc1nc(=O)n([C@@H]2O[C@H](C)[C@@H](O)[C@H]2O)cc1F [Capecitabine] |
